Patent US20250051321A1, “TRICYCLIC DERIVATIVE AND PREPARATION METHOD THEREFOR AND APPLICATION THEREOF” (SHANGHAI JEMINCARE PHARMACEUTICAL CO., LTD., priority 2021, published 2025)
Like-named read-outs stand apart in the source and are kept apart here.

Legend:
ATX = ATX (Homo sapiens (Human), UniProt Q13822); assay: ATX enzyme inhibition assay (Amplex UltraRed/choline oxidase/HRP, 16:0 Lyso PC substrate); type: biochemical
Outline: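 ATX (2× stock […]) preincubated with compound for 10 min at room temperature in assay buffer at pH 8.5 or 7.5. Reaction started with 16:0 Lyso PC, choline oxidase, HRP and Amplex UltraRed (2.5× working stock); fluorescence read kinetically (ex 550/em 590 nm) for 60 min.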

[1] = Pharmacokinetic test in mice; type: in vivo, ICR mice; details: for AUC / C0 / half-life / clearance / Cmax / Tmax / bioavailability: male, ICR, mouse, plasma; for clearance: read-out: CL (mL/min/kg, IV); for bioavailability: PO - 5 mpk vs IV - 1 mpk
Method: Dosage preparation: The dosing solution was prepared on the day of dosing. 2 mg of compound was weighed and dissolved in 5% DMSO+10% solutol+85% saline to prepare a solution for intravenous administration at a concentration of 0.2 mg/mL. 2 mg of compound was weighed and dissolved in 25% PEG 200+75% (0.5% MC) to obtain a solution for oral administration at a concentration of 1 mg/mL.
Six healthy male naïve ICR mice, weighing 25 to 30 g, were divided into two groups (intravenous and oral groups) with three in each group, and administered in a single dose. After 3 days of acclimatization, the mice were fasted overnight (10 to 12 hours) the night before the experiment, but had free access to water during the experiment, and the diet was resumed 4 hours after administration. After intravenous and oral administration, the timer was started. Blood was collected via the orbital venous plexus at the scheduled time points (IV&PO: 0.083, 0.25, 0.5, 1, 2, 4, 6, 8, and 24 hours). 40 μL of whole blood was collected at each point and added to a 1.5 mL EP tube containing sodium heparin. The collected whole blood was vibrated twice on a vortex mixer, mixed well, placed on wet ice, and centrifuged at 8000 rpm for 5 minutes at 4° C. within 1 hour. The supernatant plasma was stored in a −80° C. freezer until processing for analysis.

[2] = system: plasma LPA 18:1 and LPA 18:2; assay: Human plasma ex vivo assay (LPA 18:1 / 18:2 by LC-MS/MS); type: biochemical; details: 37° C., 2 hours
Outline: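 Human plasma incubated 2 h at 37° C with compound (8 points, 1:3 dilution, top 10 μM, 0.1% DMSO), then quenched with 0.1% FA containing LPA 17:0 internal standard.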

[3] = assay buffer pH 8.5, read-out: IC50 (nM) pH 8.5
[4] = LPA 18:1, read-out: Human plasma ex vivo assay IC50 (18:1 LPA)
[5] = LPA 18:2, read-out: Human plasma ex vivo assay IC50 (18:2 LPA)
[6] = assay buffer pH 7.5, read-out: IC50 (nM) pH 7.5

IC50 (ATX; [3])	IC50 [2, 4]	IC50 [2, 5]	AUC ([1]; 5 mg/kg, PO - 5 mpk)	Cmax ([1]; 5 mg/kg, PO - 5 mpk)	Tmax ([1]; 5 mg/kg, PO - 5 mpk)	half-life ([1]; 5 mg/kg, PO - 5 mpk)	SMILES	also measured
22.7 nM	294 nM	306 nM					CN(c1nc(-c2ccc(F)cc2)c(C#N)s1)c1c2c(nc3c(F)cc(N4CC5(CN(C(=O)[C@H]6CCOC6)C5)C4)cc13)[C@H](O)CC2 (single isomer, unassigned) [Example E5-a]	AUCi ([1]; IV - 1 mpk): 1986 ng·h/mL; C0 (IV) ([1]; IV - 1 mpk): 1882 ng/mL; CL (mL/min/kg, IV) ([1]; IV - 1 mpk): 8.54 mL/min/kg; T1/2 ([1]; IV - 1 mpk): 0.95 h; AUCi ([1]; PO - 10 mpk): 44380 ng·h/mL; Cmax (PO) ([1]; PO - 10 mpk): 7763 ng/mL; T1/2 ([1]; PO - 10 mpk): 2.34 h; Tmax (hr, PO) ([1]; PO - 10 mpk): 0.5 h; Bioavailability (%) ([1]; PO - 10 mpk vs IV - 1 mpk): 223%
20.1 nM	381 nM	383 nM	17000 ng·h/mL	3010 ng/mL	0.33 h	2.22 h	CN(c1nc(-c2ccc(F)cc2)c(C#N)s1)c1c2c(nc3c(F)cc(N4CC5(CN(C(=O)C(C)(C)O)C5)C4)cc13)[C@@H](O)CC2 (single isomer, unassigned) [Example E16-a]	AUC ([1]; 1 mg/kg, IV - 1 mpk): 5540 ng·h/mL; C0 ([1]; 1 mg/kg, IV - 1 mpk): 3550 ng/mL; half-life ([1]; 1 mg/kg, IV - 1 mpk): 1.87 h; clearance ([1]; 1 mg/kg, IV - 1 mpk): 3.07 mL/min/kg; bioavailability ([1]; 5 mg/kg): 61.3%
	457 nM	407 nM	14700 ng·h/mL	3140 ng/mL	1.58 h	2.05 h	CN(c1nc(-c2ccc(F)cc2)c(C#N)s1)c1c2c(nc3c(F)cc(N4CC5(CN(C(=O)C(C)(C)O)C5)C4)cc13)[C@](C)(O)CC2 (single isomer, unassigned) [Example E35-b]	AUC ([1]; 1 mg/kg, IV - 1 mpk): 6770 ng·h/mL; C0 ([1]; 1 mg/kg, IV - 1 mpk): 2920 ng/mL; half-life ([1]; 1 mg/kg, IV - 1 mpk): 2.51 h; clearance ([1]; 1 mg/kg, IV - 1 mpk): 2.51 mL/min/kg; bioavailability ([1]; 5 mg/kg): 43.5%
18.6 nM	147 nM	134 nM					CN(c1nc(-c2ccc(F)cc2)c(C#N)s1)c1c2c(nc3ccc(N4CC5(CN(C(=O)[C@H]6CCOC6)C5)C4)nc13)CCO2 [Example C10]	IC50 (ATX; [6]): 33.6 nM
52.6 nM	292 nM	347 nM					CN(c1nc(-c2ccc(F)cc2)c(C#N)s1)c1c2c(nc3c(F)cc(N4CC5(CN(C(=O)[C@H]6CCOC6)C5)C4)cc13)CCO2 [Example C12]	IC50 (ATX; [6]): 82.2 nM
83.1 nM	310 nM	379 nM					CN(c1nc(-c2ccc(F)cc2)c(C#N)s1)c1c2c(nc3c(F)cc(N4CCC5(CCN(C(=O)[C@@H]6CCOC6)C5)C4)cc13)CCC2 (some centres unmarked) [Example C14]	IC50 (ATX; [6]): 334 nM
60.6 nM	285 nM	326 nM					CN(c1nc(-c2ccc(F)cc2)c(C#N)s1)c1c2c(nc3c(F)cc(N4CCC5(CCN(C(=O)[C@@H]6CCOC6)CC5)C4)cc13)CCC2 [Example C15]	IC50 (ATX; [6]): 232 nM
15.2 nM			11000 ng·h/mL	3330 ng/mL	0.58 h	2.79 h	CN(c1nc(-c2ccc(F)cc2)c(C#N)s1)c1c2c(nc3c(F)cc(N4CC5(CN(C(=O)[C@H]6CCOC6)C5)C4)cc13)COC2 [Example C18]	AUC ([1]; 1 mg/kg, IV - 1 mpk): 3700 ng·h/mL; C0 ([1]; 1 mg/kg, IV - 1 mpk): 1940 ng/mL; half-life ([1]; 1 mg/kg, IV - 1 mpk): 1.82 h; clearance ([1]; 1 mg/kg, IV - 1 mpk): 4.59 mL/min/kg; bioavailability ([1]; 5 mg/kg): 59.7%
24.2 nM	677 nM	362 nM					CN(c1nc(-c2ccc(F)cc2)c(C#N)s1)c1c2c(nc3c(F)cc(N4CC5(CN(C(=O)C6(O)CCOCC6)C5)C4)cc13)COC2 [Example C20]	
	588 nM	435 nM	124000 ng·h/mL	8390 ng/mL	4.08 h	5.13 h	Cc1cc(N2CC3(CN(C(=O)C(C)(C)O)C3)C2)cc2c(N(C)c3nc(-c4ccc(F)cc4)c(C#N)s3)c3c(nc12)CC3 [Example C26]	
			27600 ng·h/mL	2010 ng/mL	6.67 h	3.98 h	Cc1cc(N2CC3(CN(C(=O)C(C)(C)O)C3)C2)cc2c(N(C)c3nc(-c4ccc(F)cc4)c(C#N)s3)c3c(nc12)CCO3 [Example C27]	
	545 nM	574 nM	125000 ng·h/mL	10200 ng/mL	3 h	2.82 h	CN(c1nc(-c2ccc(F)cc2)c(C#N)s1)c1c2c(nc3c(F)cc(N4CC5(CN(C(=O)C(C)(C)O)C5)C4)cc13)CC2 [Example C28]	AUC ([1]; 1 mg/kg, IV - 1 mpk): 14100 ng·h/mL; C0 ([1]; 1 mg/kg, IV - 1 mpk): 2110 ng/mL; half-life ([1]; 1 mg/kg, IV - 1 mpk): 3.63 h; clearance ([1]; 1 mg/kg, IV - 1 mpk): 1.21 mL/min/kg; bioavailability ([1]; 5 mg/kg): 176%
	251 nM	220 nM	36500 ng·h/mL	3640 ng/mL	0.67 h	1.89 h	Cc1cc(N2CC3(CN(C(=O)C(C)(C)O)C3)C2)nc2c(N(C)c3nc(-c4ccc(F)cc4)c(C#N)s3)c3c(nc12)CC3 [Example C29]	AUC ([1]; 1 mg/kg, IV - 1 mpk): 12600 ng·h/mL; C0 ([1]; 1 mg/kg, IV - 1 mpk): 2600 ng/mL; half-life ([1]; 1 mg/kg, IV - 1 mpk): 2.73 h; clearance ([1]; 1 mg/kg, IV - 1 mpk): 1.39 mL/min/kg; bioavailability ([1]; 5 mg/kg): 57.7%
			32300 ng·h/mL	3480 ng/mL	0.42 h	3.77 h	Cc1cc(N2CC3(CN(C(=O)C(C)(C)O)C3)C2)cc2c(N(C)c3nc(-c4ccc(F)cc4)c(C#N)s3)c3c(nc12)COC3 [Example C31]	
			21400 ng·h/mL	2660 ng/mL	0.5 h	2.56 h	CN(c1nc(-c2ccc(F)cc2)c(C#N)s1)c1c2c(nc3c(F)cc(N4CC5(CN(C(=O)C(C)(C)O)C5)C4)cc13)CCC2 [Example C32]	
15.4 nM	149 nM	327 nM					C[C@H]1CN(CC(=O)N2CC(O)C2)CCN1c1cc(F)c2nc3c(c(N(C)c4nc(-c5ccc(F)cc5)c(C#N)s4)c2c1)CCC3O (some centres unmarked) [Example E7]	
15.4 nM	175 nM	160 nM					C[C@H]1CN(c2cc(F)c3nc4c(c(N(C)c5nc(-c6ccc(F)cc6)c(C#N)s5)c3c2)CCC4O)CCN1CC(=O)N1CC(O)C1 (some centres unmarked) [Example E8]	
19.6 nM	160 nM	152 nM					C[C@@H]1CN(c2cc(F)c3nc4c(c(N(C)c5nc(-c6ccc(F)cc6)c(C#N)s5)c3c2)CCC4O)CCN1CC(=O)N1CC(O)C1 (some centres unmarked) [Example E9]	
16.2 nM	139 nM	270 nM					CN(c1nc(-c2ccc(F)cc2)c(C#N)s1)c1c2c(nc3c(F)cc(N4CCN(CC(=O)N5CC(C)(O)C5)CC4)cc13)C(O)CC2 (centres unmarked) [Example E10]	
17.3 nM	281 nM	651 nM					CN(c1nc(-c2ccc(F)cc2)c(C#N)s1)c1c2c(nc3c(F)cc(N4CC5(CN(C(=O)C6CCOCC6)C5)C4)cc13)C(O)CC2 (centres unmarked) [Example E14]	
13.3 nM	266 nM	271 nM					CN(c1nc(-c2ccc(F)cc2)c(C#N)s1)c1c2c(nc3c(F)cc(N4CC5(CN(C(=O)C6(O)CCOCC6)C5)C4)cc13)C(O)CC2 (centres unmarked) [Example E15]	
16.8 nM	410 nM	436 nM					CN(c1nc(-c2ccc(F)cc2)c(C#N)s1)c1c2c(nc3c(F)cc(N4CC5(CN(C(=O)C(C)(C)O)C5)C4)cc13)C(O)CC2 (centres unmarked) [Example E16]	
21.4 nM	250 nM	260 nM					CN1CC[C@H](C(=O)N2CC3(C2)CN(c2cc(F)c4nc5c(c(N(C)c6nc(-c7ccc(F)cc7)c(C#N)s6)c4c2)CCC5O)C3)C1 (some centres unmarked) [Example E18]	
	379 nM	457 nM	23900 ng·h/mL	2830 ng/mL	0.58 h	2.66 h	Cc1cc(N2CC3(CN(C(=O)C(C)(C)O)C3)C2)nc2c(N(C)c3nc(-c4ccc(F)cc4)c(C#N)s3)c3c(nc12)C(C)(O)CC3 (centres unmarked) [Example E25]	
	516 nM	592 nM	31300 ng·h/mL	4430 ng/mL	1.75 h	2.16 h	Cc1cc(N2CC3(CN(C(=O)C(C)(C)O)C3)C2)cc2c(N(C)c3nc(-c4ccc(F)cc4)c(C#N)s3)c3c(nc12)C(O)CC3 (centres unmarked) [Example E26]	
	202 nM	185 nM	8890 ng·h/mL	2040 ng/mL	1.58 h	1.51 h	Cc1cc(N2CC3(CN(C(=O)C(C)(C)O)C3)C2)nc2c(N(C)c3nc(-c4ccc(F)cc4)c(C#N)s3)c3c(nc12)C(O)CC3 (centres unmarked) [Example E32]	
